This note sets out measurements from patent US12441719B2, “Inhibitors of SARM1” (Disarm Therapeutics, Inc., priority 2019, dated 2025).

The first experiment concerns the target T1, SARM1 (Homo sapiens, UniProt Q6SZW1).
T1 construct: AviTag […]; made in house; host or cells: NRK1-HEK293T cells, transiently transfected; the clarified sonicated lysate was used without purification
T1 sequence (Q6SZW1 with tags, fused parts or gaps): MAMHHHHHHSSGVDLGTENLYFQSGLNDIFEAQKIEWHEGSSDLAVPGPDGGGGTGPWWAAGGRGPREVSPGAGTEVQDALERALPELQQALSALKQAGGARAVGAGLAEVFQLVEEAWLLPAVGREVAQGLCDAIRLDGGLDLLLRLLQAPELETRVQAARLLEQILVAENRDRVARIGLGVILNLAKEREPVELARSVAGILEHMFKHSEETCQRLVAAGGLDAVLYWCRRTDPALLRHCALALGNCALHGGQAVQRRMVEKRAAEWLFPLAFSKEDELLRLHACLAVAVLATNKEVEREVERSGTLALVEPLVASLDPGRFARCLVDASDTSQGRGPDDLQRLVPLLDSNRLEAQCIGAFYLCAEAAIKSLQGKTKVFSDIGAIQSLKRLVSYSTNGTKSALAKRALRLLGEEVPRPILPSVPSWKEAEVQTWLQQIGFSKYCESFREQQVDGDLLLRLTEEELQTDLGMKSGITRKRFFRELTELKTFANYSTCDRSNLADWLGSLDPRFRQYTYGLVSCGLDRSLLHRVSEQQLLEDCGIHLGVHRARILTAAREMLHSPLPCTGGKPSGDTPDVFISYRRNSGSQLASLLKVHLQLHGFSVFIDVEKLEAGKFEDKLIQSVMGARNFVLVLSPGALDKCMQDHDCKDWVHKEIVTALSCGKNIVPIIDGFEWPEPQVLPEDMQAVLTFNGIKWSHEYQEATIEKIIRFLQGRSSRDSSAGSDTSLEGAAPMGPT
The experiment in a line: ARM-SAM-TIR SARM1 IC50 assay (NADase activity, NAD+ cleavage). It is filed as biochemical.
Settings: not given
An excerpt: This Example describes an assay of ARM-SAM-TTR NADase activity and use of this assay to measure the efficacy of compounds of Formula I or Formula II to block SARM1 mediated NAD+ cleavage. This assay is optimized in such a way as to characterize the efficacy of the compounds in Formula I or Formula II to inhibit SARM1 activity and to calculate an IC50 value for each compound. This assay makes use of full length SARI, which encompasses the ARM, SAM and TTR domains.
Preparation of ARM-SAM-TIR Lysate (STL)
NRK1-HEK293T cells were seeded onto 150 cm^2 plates at 20×10^6 cells per plate. The next day, the cells were transfected with 15 μg ARM-SAM-TIR expression plasmid, SEQ ID NO: 1.
The cultures were supplemented with 1 mM NR at time of transfection to minimize toxicity from ARM-SAM-TIR overexpression. Forty-eight hours after transfection, cells were harvested, pelleted by centrifugation at 1,000 rpm (Sorvall ST 16R centrifuge, Thermo Fisher), and washed once with cold PBS (0.01 M phosphate buffered saline NaCl 0.138 M; KCl 0.0027 M; pH 7.4). The cells were resuspended in PBS with protease inhibitors (cOmplete™ protease inhibitor cocktail, Roche product #11873580001) and cell lysates were prepared by sonication (Branson Sonifer 450, output=3, 20 episodes of stroke). The lysates were centrifuged (12,000×g for 10 min at 4° C.) to remove cell debris and the supernatants (containing ARM-SAM-TIR protein) were stored at −80° C. for later use in the in vitro ARM-SAM-TIR NADase assay (see below). Protein concentration was determined by the Bicinchoninic (BCA) method and used to normalize lysate concentrations.
ARM-SAM-TIR IC50 Assay of Formula I or Formula II Compounds.
The enzymatic assay was performed in a 384-well polypropylene plate in Dulbecco's PBS buffer in a final assay volume of 20 μL. ARM-SAM-TIR lysate with a final concentration of 5 μg/mL was pre-incubated with the respective compound at 1% DMSO final assay concentration over 2 h at room temperature. The reaction was initiated by addition of 5 μM final assay concentration of NAD+ as substrate. After a 2 hr room temperature incubation, the reaction was terminated with 40 μL of stop solution of 7.5% trichloroactetic acid in acetonitrile. The NAD+ and ADPR concentrations were analyzed by a RapidFire High Throughput Mass Spectrometry System (Agilent Technologies, Santa Clara, CA) using an API4000 triple quadrupole mass spectrometer (AB Sciex Framingham, MA).
One may read the IC50 as the concentration that gives 50% inhibition. `CC(C)(C)OC(=O)N1C2CC1CN(c1cc(C#N)c3cc(Cl)ccc3n1)C2` [Example 91] yielded an IC50 of less than 5 µM.

Still in this experiment, the particulars now being: ARM-SAM-TIR lysate 5 μg/mL from NRK1-HEK293T cells; 2 h pre-incubation with compound, 5 μM NAD+, 2 hr room temperature; NAD+ and ADPR by RapidFire mass spectrometry; read-out: SARM1 IC50.
Take `N#Cc1cc(N2CCN(c3ncc[nH]3)CC2)nc2ccc(Cl)cc12` [Example 43]: the 50% inhibitory concentration (IC50) fell in the range of 15 to 30 µM.

In the case of `N#Cc1cc(N2CCC(NCCO)CC2)nc2ccc(Cl)cc12` [Example 1], the IC50 fell in the range of 5 to 15 µM.

`CN(CC1CC1)C(=O)[C@H]1CCCN(c2cc(C#N)c3cc(Br)ccc3n2)C1` [Example 115]: the half-inhibitory concentration (IC50) was less than 5 µM.

Regarding `C[C@]1(NS(C)(=O)=O)CCCN(c2cc(C#N)c3cc(Br)ccc3n2)C1` [Example 120], the IC50 was less than 5 µM.

Regarding `Cc1cncnc1C(=O)N[C@H]1CCCN(c2cc(C#N)c3cc(Br)ccc3n2)C1` [Example 135], the IC50 was less than 5 µM.

As to `N#Cc1cc(NC2CCCCNC2=O)nc2ccc(Cl)cc12` (stereo not shown) [Example 31], the IC50 was less than 5 µM.

Regarding `N#Cc1cc(N2CCC[C@H](NC(=O)c3cnccn3)C2)nc2ccc(Br)cc12` [Example 133], the concentration for half-maximal inhibition (IC50) is less than 5 µM.

As for `N#Cc1cc(N2CC[C@@H](N)C2)nc2ccc(Cl)cc12` [Example 65], the concentration for half-maximal inhibition (IC50) was less than 5 µM.

Take `CC(=O)N1CCN(c2cc(C#N)c3cc(Cl)ccc3n2)CC1` [Example 35]: the concentration for half-maximal inhibition (IC50) was less than 5 µM.

Turning to `N#Cc1cc(N2CCC(N)CC2)nc2ccc(Cl)cc12` [Example 3], the 50% inhibitory concentration (IC50) was 5 to 15 µM.

With `CN(C)C(=O)C1CCN(c2cc(C#N)c3cc(Cl)ccc3n2)C1` (stereo not shown) [Example 69], the IC50 is less than 5 µM.

In the case of `N#Cc1cc(N2CCC(C(N)=O)C2)nc2ccc(Cl)cc12` (stereo not shown) [Example 67], the concentration for half-maximal inhibition (IC50) was less than 5 µM.

As for `C[C@@H]1CCC[C@H](C)N1c1cc(C#N)c2cc(Br)ccc2n1` [Example 96], the IC50 was less than 5 µM.

Turning to `N#Cc1cc(N2CCC[C@H](N)C2)nc2ccc(Cl)cc12` [Example 58], the concentration for half-maximal inhibition (IC50) is less than 5 µM.

Consider `N#Cc1cc(N2CCC[C@H](N3CCCC3=O)C2)nc2ccc(Br)cc12` [Example 109], for which the IC50 is less than 5 µM.

`COc1cc(C#N)c2cc(Cl)ccc2n1` [Example 14]: the IC50 is less than 5 µM.

Turning to `N#Cc1cc(N2CCC[C@H](O)C2)nc2ccc(Cl)cc12` [Example 77], the IC50 is less than 5 µM.

As to `N#Cc1cc(N2CCC[C@H](C(=O)NCC3CC3)C2)nc2ccc(Br)cc12` [Example 103], the concentration for half-maximal inhibition (IC50) is less than 5 µM.

With `C[C@@H]1CCC[C@H](C)N1c1cc(C#N)c2ccccc2n1` [Example 144], the half-maximal inhibitory concentration (IC50) is less than 5 µM.

As to `CC(=O)NC1(C)CCN(c2cc(C#N)c3cc(Br)ccc3n2)CC1` [Example 114], the IC50 is less than 5 µM.

As to `CO[C@@H]1CCN(c2cc(C#N)c3cc(Cl)ccc3n2)C1` [Example 48], the IC50 is less than 5 µM.

Regarding `CS(=O)(=O)C1CCN(c2cc(C#N)c3cc(Cl)ccc3n2)CC1` [Example 55], the IC50 lay within 5 to 15 µM.

In the case of `Cc1ccc2nc(N(C)C)cc(C#N)c2c1` [Example 19], the IC50 is less than 5 µM.

As to `N#Cc1cc(N2CCCCC2)nc2ccc(Br)cc12` [Example 21], the half-inhibitory concentration (IC50) was less than 5 µM.

Regarding `N#Cc1cc(N2CCCCC2)nc2ccc(Cl)cc12` [Example 4], the concentration for half-maximal inhibition (IC50) is less than 5 µM.

Consider `N#Cc1cc(NCC2CC2)nc2ccc(Cl)cc12` [Example 13], for which the IC50 was less than 5 µM.

As for `C[C@@H]1CCC[C@H](C)N1c1cc(C#N)c2cc(Cl)ccc2n1` [Example 81], the concentration for half-maximal inhibition (IC50) is less than 5 µM.

Take `CNC(=O)C1CCN(c2cc(C#N)c3cc(Cl)ccc3n2)C1` (stereo not shown) [Example 68]: the half-maximal inhibitory concentration (IC50) lay in the range of 5 to 15 µM.

As to `C[C@@H]1CCCCN1c1cc(C#N)c2cc(Cl)ccc2n1` [Example 82], the IC50 was less than 5 µM.

On to `Cc1ccc2nc(N3CCCCC3)cc(C#N)c2c1` [Example 18], for which the concentration for half-maximal inhibition (IC50) was in the range of 5 to 15 µM.
